Each block holds one compound with its values, some of them ahead of it.
How the values were obtained:
bovine serum albumin = bovine serum albumin (Bos taurus, UniProt P02769); conditions: known drugs of Example 5, described as poor, medium or high binders; cited from earlier work
[1] = Williams and Lemke 2002; (1), (2) number the two pKa of doxycycline; cited from earlier work
[2] = pKa by colloidal gold pH titration (ratio O.D. 620 nm/525 nm); conditions: colloidal gold pH titration of 1 mM drugs, 1% DMSO, (2) number the two pKa of doxycycline; for pKa: buffered gold colloid (gold nanoparticle solution), pKa observed
Method: (§1) A series of 50 mM buffers of pH 2-12 was then prepared (phosphate [pH 2, 3, 6, 7, 8], acetate [pH 4 and 5] and borate [pH 9, 10, 11, 12]), which were further diluted 5-fold with the gold colloid solution. The final pH of the 10 mM buffered colloid so obtained was then recorded. Drug solutions (10 μl, 100 mM in DMSO) were then pipeted in 1 mL of the buffered colloid and the mixture was vortex-mixed. After 30 minutes of incubation, the solutions were pipeted in 96-well polystyrene plates and the O.D. at 620 nm and 525 nm were recorded. The ratio O.D. 620 nm/O.D. 525 nm was calculated. This ratio relates to the agglutination of the colloid (i.e., the higher the ratio, the higher the agglutination). Typically, the ionization of a molecule creates charge(s) that may facilitate the agglutination of the colloid. Thus, titering a molecule with buffered gold colloids over a range of pHs can allow one to determine the ionization constant from the interpolated mid-point of the sigmoid curve drawn from agglutinated to unagglutinated colloid as a function of pH.

physchem = conditions: pKa observed
Method: as §1

serum albumin = conditions: literature (Goodman and Gillman 1996); cited from earlier work
[3] = Redox potential with PANI-COOH conductive polymer (O.D. 450 nm); assay type: physicochemical; conditions: 100 μM drug, PANI-COOH at pH 4, 10 minutes room temperature; inferred from 450 nm signal
Method: The redox potential of known drugs were assayed. The known drug at a given final concentration (100 μM) was introduced in a buffered solution of a conductive polymer (poly[aniline-2-carboxylic acid], PANI-COOH) at pH 4. The solution was mixed and incubated at room temperature (10 minutes). The optical density was read at 450 nm. A sample blank containing the drug and phtalate buffer was prepared, incubated and read in the same way. The OD 450 nm of the blank solution was subtracted from the OD 450 nm of the conductive polymer reaction mixture. […] A linear relationship was observed between the 450 nm signal and the reduction potential of the known molecules (FIG. 15.), which allowed the inference of the reduction potential of NCEs.
Screening a library of 60 well-known drugs allowed identification of bromocriptine as a relatively strong […] (E=−364 mV), prazosin and chlorpropamide as relatively strong […] (E=747 and 848 mV), which is in agreement with literature data (Wardman P. (1989) Reduction potentials of one-electron couples involving free radicals in aqueous solution. J. Phys. Chem. Ref. Data 18, 1637-1755). Although a reductant drug may exert beneficial therapeutic effects, an oxidant may be toxic. […]

human serum albumin = human serum albumin (Homo sapiens, UniProt P02768); conditions: literature (Westphal 1986); cited from earlier work
[4] = literature (Goodman and Gillman 1996); cited from earlier work
[5] = Volume of distribution in humans; conditions: human

Sequence of bovine serum albumin (P02769 25-607): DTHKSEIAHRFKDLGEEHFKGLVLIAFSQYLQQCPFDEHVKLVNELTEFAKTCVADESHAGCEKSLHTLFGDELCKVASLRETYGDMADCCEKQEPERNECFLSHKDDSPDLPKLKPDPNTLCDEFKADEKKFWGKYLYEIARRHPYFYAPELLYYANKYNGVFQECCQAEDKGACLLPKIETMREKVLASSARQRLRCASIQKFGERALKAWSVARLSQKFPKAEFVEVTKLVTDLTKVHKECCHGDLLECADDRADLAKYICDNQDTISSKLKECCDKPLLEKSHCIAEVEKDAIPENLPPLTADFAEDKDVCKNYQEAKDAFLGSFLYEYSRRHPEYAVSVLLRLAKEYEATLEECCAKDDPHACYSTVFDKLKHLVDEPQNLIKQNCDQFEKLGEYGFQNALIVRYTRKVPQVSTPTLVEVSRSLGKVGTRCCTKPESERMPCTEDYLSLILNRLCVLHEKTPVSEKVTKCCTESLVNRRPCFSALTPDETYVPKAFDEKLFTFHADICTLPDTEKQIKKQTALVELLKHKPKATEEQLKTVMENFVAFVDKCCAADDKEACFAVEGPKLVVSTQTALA
Sequence of human serum albumin (P02768 25-609): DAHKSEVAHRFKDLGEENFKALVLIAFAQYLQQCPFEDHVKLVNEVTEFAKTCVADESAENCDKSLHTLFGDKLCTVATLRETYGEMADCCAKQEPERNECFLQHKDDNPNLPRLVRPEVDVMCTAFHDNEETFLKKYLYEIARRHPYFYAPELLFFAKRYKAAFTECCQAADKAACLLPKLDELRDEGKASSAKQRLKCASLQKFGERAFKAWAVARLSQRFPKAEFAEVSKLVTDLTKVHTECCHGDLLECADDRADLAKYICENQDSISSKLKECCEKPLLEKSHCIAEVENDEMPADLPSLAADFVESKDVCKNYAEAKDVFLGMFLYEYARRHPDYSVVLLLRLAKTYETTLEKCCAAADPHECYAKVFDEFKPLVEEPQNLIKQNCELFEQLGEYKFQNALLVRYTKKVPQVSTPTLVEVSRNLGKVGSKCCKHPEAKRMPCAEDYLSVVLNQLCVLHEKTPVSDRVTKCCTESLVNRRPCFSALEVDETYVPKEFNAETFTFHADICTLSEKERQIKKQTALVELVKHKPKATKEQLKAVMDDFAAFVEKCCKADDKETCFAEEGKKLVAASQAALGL

SMILES: CC(=O)Oc1ccccc1C(=O)O [Aspirin, Acetylsalicylic acid]
binder class to the protein (bovine serum albumin) (bovine serum albumin): poor binders

SMILES: CN(C)CCC(c1ccc(Cl)cc1)c1ccccn1 (stereo not shown) [Chlorpheniramine]
binder class to the protein (bovine serum albumin) (bovine serum albumin): medium binders

SMILES: Nc1ccc(S(=O)(=O)c2ccc(N)cc2)cc1 [Dapsone]
pKa from reference [1]: 2.4
pKa [2]: 3.9

pKa [2]: 6.9
SMILES: CC[C@H]1OC(=O)[C@H](C)[C@@H](O[C@H]2C[C@@](C)(OC)[C@@H](O)[C@H](C)O2)[C@H](C)[C@@H](O[C@@H]2O[C@H](C)C[C@H](N(C)C)[C@H]2O)[C@](C)(O)C[C@@H](C)C(=O)[C@H](C)[C@@H](O)[C@]1(C)O [Erythromycine, Erythromycin]
binder class to the protein (bovine serum albumin) (bovine serum albumin): medium binders

pKa (physchem): 3
SMILES: CCOc1ccc2ccccc2c1C(=O)N[C@@H]1C(=O)N2[C@@H]1SC(C)(C)[C@@H]2C(=O)O [Nafcillin]

SMILES: CC(=O)Nc1ccc(O)cc1 [Paracetamol]
pKa from reference [1]: 9.4
pKa observed [2]: 9.5

pKa [2]: 7.4
SMILES: C=C[C@H]1C[N@@]2CC[C@H]1C[C@@H]2[C@@H](O)c1ccnc2ccc(OC)cc12 [Quinidine]

SMILES: C=CC1=C(C)/C(=C/c2[nH]c(Cc3[nH]c(/C=C4\NC(=O)C(C)=C4C=C)c(C)c3CCC(=O)O)c(CCC(=O)O)c2C)NC1=O [bilirubin]
bound by serum albumin / by the protein in plasma (serum albumin): ~100%

reduction potential E [3]: 848 mV
SMILES: CCCNC(=O)NS(=O)(=O)c1ccc(Cl)cc1 [chlorpropamide]

SMILES: C[C@H]1O[C@@H](O[C@H]2[C@@H](O)C[C@H](O[C@H]3[C@@H](O)C[C@H](O[C@H]4CC[C@@]5(C)[C@H](CC[C@@H]6[C@@H]5C[C@@H](O)[C@]5(C)[C@@H](C7=CC(=O)OC7)CC[C@]65O)C4)O[C@@H]3C)O[C@@H]2C)C[C@H](O)[C@@H]1O [digoxin, Digoxin]
apparent affinity for human serum albumin determined by dialysis (human serum albumin): 1.85.10^5 liters per mole

reduction potential E [3]: 747 mV
SMILES: COc1cc2nc(N3CCN(C(=O)c4ccco4)CC3)nc(N)c2cc1OC [prazosin]

SMILES: Cn1c(=O)c2[nH]cnc2n(C)c1=O [theophylline]
volume of distribution observed experimentally [4]: 0.50±0.16 liters per Kg
Vd [5]: 0.551 L/kg

Reference: patent US20090029391A1, “REAGENTS AND METHODS FOR THE DETERMINATION OF PK/ADME-TOX CHARACTERISTICS OF NEW CHEMICAL ENTITIES AND OF DRUG CANDIDATES” (priority 2007, published 2009)
